Test results taken from patent US7396837B2, “Antitumoral analogs of lamellarins” (Pharma Mar, S.A.U., priority 2002, dated 2008).
Where two headings read alike, the source gives them in different places.

Key:
Assay type in all cases: cell-based
K-562 = assay: SRB colorimetric cell growth inhibition assay, K-562; conditions: Homo sapiens
In short: (§1)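 In this cytotoxicity screen, compound stays in contact with the cultured human cancer cells without washout; sulforhodamine B binding gives the measure of cell number, and endpoints separate growth inhibition from cytostasis (TGI) and killing (LC).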

A-549 = assay: SRB colorimetric cell growth inhibition assay, A-549; conditions: Homo sapiens
In short: as §1

SK-MEL-28 = assay: SRB colorimetric cell growth inhibition assay, SK-MEL-28; conditions: Homo sapiens
In short: as §1

HT-29 = assay: SRB colorimetric cell growth inhibition assay, HT-29; conditions: Homo sapiens
In short: as §1

LoVo = assay: SRB colorimetric cell growth inhibition assay, LoVo; conditions: Homo sapiens, LoVo; for GI50: read-out: GI50 LOVO; for CC50: read-out: LC50 LOVO; for IC (TGI): read-out: TGI LOVO
In short: as §1

LoVo-Dox = assay: SRB colorimetric cell growth inhibition assay, LoVo-Dox (MDR); conditions: Homo sapiens; for GI50: read-out: GI50 LOVO-DOX; for CC50: read-out: LC50 LOVO-DOX; for IC (TGI): read-out: TGI LOVO-DOX
In short: as §1

DU-145 = assay: SRB colorimetric cell growth inhibition assay, DU-145; conditions: Homo sapiens
In short: as §1

LNCaP = assay: SRB colorimetric cell growth inhibition assay, LNCaP; conditions: Homo sapiens, LNCaP; for GI50: read-out: GI50 LN-caP; for CC50: read-out: LC50 LN-caP; for IC (TGI): read-out: TGI LN-caP
In short: as §1

SK-BR-3 = assay: SRB colorimetric cell growth inhibition assay, SK-BR-3; conditions: Homo sapiens
In short: as §1

IGROV = assay: SRB colorimetric cell growth inhibition assay, IGROV; conditions: Homo sapiens, IGROV; for GI50: read-out: GI50 IGROV; for CC50: read-out: LC50 IGROV; for IC (TGI): read-out: TGI IGROV
In short: as §1

IGROV-ET = assay: SRB colorimetric cell growth inhibition assay, IGROV-ET (ET-743 resistant); conditions: Homo sapiens; for GI50: read-out: GI50 IGROV-ET; for CC50: read-out: LC50 IGROV-ET; for IC (TGI): read-out: TGI IGROV-ET
In short: as §1

PANC-1 = assay: SRB colorimetric cell growth inhibition assay, PANC-1; conditions: Homo sapiens
In short: as §1

SKOV-3 = assay: SRB colorimetric cell growth inhibition assay, SKOV-3; conditions: Homo sapiens
From the text: (§2) A colorimetric type of assay, using sulforhodamine B (SRB) reaction has been adapted for a quantitative measurement of cell growth and viability (following the technique described by P. A. Skehan, et al., J. Natl. Cancer Inst. 1990, 82, 1107-1112).
(§3) This form of assay employs 96 well cell culture microplates of 9 mm diameter (T. Mosmann et al., J. of Immunological Methods 1983, 65, 55-63; G. T. Faircloth et al., J. of Tissue and Culture Methods 1988, 11, 201-205).
(§4) Most of the cell lines are obtained from American Type Culture Collection (ATCC) derived from different human cancer types.
(§5) The values for mean +/− SD of data from triplicate wells are calculated. Some parameters for cellular responses can be calculated: GI=growth inhibition, TGI=total growth inhibition (cytostatic effect) and LC=cell killing (cytotoxic effect).

[1] = SRB colorimetric cell growth inhibition assay, H-MEC-1; conditions: human, H-MEC-1, cell killing (cytotoxic effect), read-out: LC50 H-MEC-1
From the text: as §2, §3, §4, §5

H-MEC-1 = assay: as above; conditions: Homo sapiens
From the text: as §2, §3, §4, §5

[2] = cell killing (cytotoxic effect)
[3] = total growth inhibition (cytostatic effect)

COc1cc(-c2c3n(c4c(=O)oc5cc(O)c(OC)cc5c24)CCc2c-3cc(OC)c(OC)c2O)ccc1O [Compound 1]
GI50 (K-562; K562, K-562, GI=growth inhibition, read-out: GI50 K-562): 0.815 µM | CC50 (K-562; K562, K-562, cell killing (cytotoxic effect), read-out: LC50 K-562): 2.97 µM | IC (TGI) (K-562; K562, K-562, total growth inhibition (cytostatic effect), read-out: TGI K-562): 2.11 µM | GI50 (A-549; A549, A-549, GI=growth inhibition, read-out: GI50 A-549): ≥ 1.88 µM | CC50 (A-549; A549, A-549, cell killing (cytotoxic effect), read-out: LC50 A-549): ≥ 1.88 µM | IC (TGI) (A-549; A549, A-549, total growth inhibition (cytostatic effect), read-out: TGI A-549): 1.88 µM | GI50 (SK-MEL-28; SK-MEL-28, MEL-28, GI=growth inhibition, read-out: GI50 MEL-28): 2.24 µM | CC50 (SK-MEL-28; SK-MEL-28, MEL-28, cell killing (cytotoxic effect), read-out: LC50 MEL-28): 11.3 µM | IC (TGI) (SK-MEL-28; SK-MEL-28, MEL-28, total growth inhibition (cytostatic effect), read-out: TGI MEL-28): 5.04 µM | GI50 (HT-29; HT-29, HT-29, GI=growth inhibition, read-out: GI50 HT-29): ≥ 18.8 µM | CC50 (HT-29; HT-29, HT-29, cell killing (cytotoxic effect), read-out: LC50 HT-29): 18.8 µM | IC (TGI) (HT-29; HT-29, HT-29, total growth inhibition (cytostatic effect), read-out: TGI HT-29): 18.8 µM | GI50 (LoVo; GI=growth inhibition): 11.8 µM | CC50 (LoVo; [2]): 18.8 µM | IC (TGI) (LoVo; [3]): 57.6 µM | GI50 (LoVo-Dox; LOVO-DOX, GI=growth inhibition): 0.801 µM | CC50 (LoVo-Dox; LOVO-DOX, cell killing (cytotoxic effect)): 18.8 µM | IC (TGI) (LoVo-Dox; LOVO-DOX, total growth inhibition (cytostatic effect)): 7.13 µM | GI50 (DU-145; DU-145, DU-145, GI=growth inhibition, read-out: GI50 DU-145): 8.24 µM | CC50 (DU-145; DU-145, DU-145, cell killing (cytotoxic effect), read-out: LC50 DU-145): 17 µM | IC (TGI) (DU-145; DU-145, DU-145, total growth inhibition (cytostatic effect), read-out: TGI DU-145): 11.8 µM | GI50 (LNCaP; LN-caP, GI=growth inhibition): 0.277 µM | CC50 (LNCaP; LN-caP, cell killing (cytotoxic effect)): 7.85 µM | IC (TGI) (LNCaP; LN-caP, total growth inhibition (cytostatic effect)): 1.44 µM | GI50 (SK-BR-3; SK-BR-3, SK-BR-3, GI=growth inhibition, read-out: GI50 SK-BR-3): 2.37 µM | CC50 (SK-BR-3; SK-BR-3, SK-BR-3, cell killing (cytotoxic effect), read-out: LC50 SK-BR-3): 18.8 µM | IC (TGI) (SK-BR-3; SK-BR-3, SK-BR-3, total growth inhibition (cytostatic effect), read-out: TGI SK-BR-3): 10.9 µM | GI50 (IGROV; GI=growth inhibition): 0.493 µM | CC50 (IGROV; [2]): 18.8 µM | IC (TGI) (IGROV; [3]): 1.76 µM | GI50 (IGROV-ET; IGROV-ET, GI=growth inhibition): 0.444 µM | CC50 (IGROV-ET; IGROV-ET, cell killing (cytotoxic effect)): 18.8 µM | IC (TGI) (IGROV-ET; IGROV-ET, total growth inhibition (cytostatic effect)): 1.2 µM | GI50 (PANC-1; PANC-1, PANC-1, GI=growth inhibition, read-out: GI50 PANC-1): 2.2 µM | CC50 (PANC-1; PANC-1, PANC-1, cell killing (cytotoxic effect), read-out: LC50 PANC-1): 18.8 µM | IC (TGI) (PANC-1; PANC-1, PANC-1, total growth inhibition (cytostatic effect), read-out: TGI PANC-1): 7.94 µM | GI50 (SKOV-3; SK-OV-3, SKOV-3, GI=growth inhibition, read-out: GI50 SKOV-3): 13.7 µM | LC50 (concentration causing 50% net cell killing) (SKOV-3; SK-OV-3, SKOV-3, cell killing (cytotoxic effect), read-out: LC50 SKOV-3): 18.8 µM | IC (TGI) (SKOV-3; SK-OV-3, SKOV-3, total growth inhibition (cytostatic effect), read-out: TGI SKOV-3): 18.8 µM | LC50 (concentration giving 50% net cell killing) ([1]; H-MEC-1 cells): 5.72 µM | GI50 (H-MEC-1; HMEC-1, H-MEC-1, GI=growth inhibition, read-out: GI50 H-MEC-1): 0.606 µM | IC (TGI) (H-MEC-1; HMEC-1, H-MEC-1, total growth inhibition (cytostatic effect), read-out: TGI H-MEC-1): 1.38 µM

COc1cc(-c2c3c4cc(OC)c(O)cc4oc(=O)c3n3ccc4c(O)c(OC)c(OC)cc4c23)ccc1O [Compound 2]
GI50 (K-562; K562, read-out: GI50 K-562): 0.117 µM | CC50 (K-562; K562, read-out: LC50 K-562): 18.9 µM | IC (TGI) (K-562; K562, read-out: TGI K-562): 2.25 µM | GI50 (A-549; A549, read-out: GI50 A-549): 0.674 µM | CC50 (A-549; A549, read-out: LC50 A-549): 18.9 µM | IC (TGI) (A-549; A549, read-out: TGI A-549): 18.9 µM | GI50 (SK-MEL-28; SK-MEL-28, read-out: GI50 MEL-28): 0.302 µM | CC50 (SK-MEL-28; SK-MEL-28, read-out: LC50 MEL-28): ≥ 18.9 µM | IC (TGI) (SK-MEL-28; SK-MEL-28, read-out: TGI MEL-28): 3.66 µM | GI50 (HT-29; HT-29, read-out: GI50 HT-29): 8.31 µM | CC50 (HT-29; HT-29, read-out: LC50 HT-29): 18.9 µM | IC (TGI) (HT-29; HT-29, read-out: TGI HT-29): 18.9 µM | GI50 (LoVo): 0.398 µM | CC50 (LoVo): 16 µM | IC (TGI) (LoVo): 3.02 µM | GI50 (LoVo-Dox): 0.604 µM | CC50 (LoVo-Dox): 18.9 µM | IC (TGI) (LoVo-Dox): 3.83 µM | GI50 (DU-145; DU-145, read-out: GI50 DU-145): 0.064 µM | CC50 (DU-145; DU-145, read-out: LC50 DU-145): ≥ 18.9 µM | IC (TGI) (DU-145; DU-145, read-out: TGI DU-145): 0.14 µM | GI50 (LNCaP): 0.0727 µM | CC50 (LNCaP): 1.44 µM | IC (TGI) (LNCaP): 0.398 µM | GI50 (SK-BR-3; SK-BR-3, read-out: GI50 SK-BR-3): 0.314 µM | CC50 (SK-BR-3; SK-BR-3, read-out: LC50 SK-BR-3): ≥ 18.8 µM | IC (TGI) (SK-BR-3; SK-BR-3, read-out: TGI SK-BR-3): 2.36 µM | GI50 (IGROV): 0.88 µM | CC50 (IGROV): ≥ 18.9 µM | IC (TGI) (IGROV): 5.17 µM | GI50 (IGROV-ET): 1.98 µM | CC50 (IGROV-ET): ≥ 18.9 µM | IC (TGI) (IGROV-ET): 8.12 µM | GI50 (PANC-1; PANC-1, read-out: GI50 PANC-1): 0.988 µM | CC50 (PANC-1; PANC-1, read-out: LC50 PANC-1): 18.9 µM | IC (TGI) (PANC-1; PANC-1, read-out: TGI PANC-1): 6.97 µM | GI50 (SKOV-3; SK-OV-3, read-out: GI50 SKOV-3): 0.14 µM | LC50 (concentration causing 50% net cell killing) (SKOV-3; SK-OV-3, read-out: LC50 SKOV-3): ≥ 18.9 µM | IC (TGI) (SKOV-3; SK-OV-3, read-out: TGI SKOV-3): 5.1 µM | LC50 (concentration giving 50% net cell killing) [1]: ≥ 18.9 µM | GI50 (H-MEC-1; HMEC-1, read-out: GI50 H-MEC-1): 0.665 µM | IC (TGI) (H-MEC-1; HMEC-1, read-out: TGI H-MEC-1): 18.9 µM
